In patent publication US20240287525A1, “COMPOSITIONS AND METHODS FOR TREATING CANCER” (OSLO UNIVERSITETSSYKEHUS HF, priority 2021, published 2024):

Tested on: MTHFD2
Assay: MTHFD2 knockdown efficiency by qPCR and Western analyses after siRNA transfection
Assay type: cell-based
Details: LNCaP cells, mRNA by qRT-PCR
Procedure: FIG. 1: MTHFD2 knockdown inhibits growth of PCa cells, PDX-derived organoids, and tumor xenografts. A. MTHFD2 knockdown efficiency was determined in LNCaP and DU145 cells that were transfected with either scrambled siRNA or two independent MTHFD2-specific siRNAs for 48 hours by both qPCR and Western analyses. B. LNCaP, VCaP, or 22Rv1 cells transfected with control or MTHFD2-specific siRNAs were cultured for the indicated times, and cell numbers were determined by trypan blue staining. *p<0.01. MTHFD2 knockdown hinders colony (C-D) and prostatosphere (E) formation ability of PCa cells. F. Viability of normal prostate cells is not affected by MTHFD2 knockdown. G. MTHFD2 expression and knockdown efficiency in various LuCaP organoids were assessed by Western analysis.
FIG. 4: A. LNCaP cells were transfected with MTHFD2 (siMTHFD2 #1) or non-targeting control siRNAs. Cells were cultured for the indicated time points, collected, and MTHFD2 mRNA levels were determined by qRT-PCR. […] B. LNCaP and DU145 cells were reverse transfected with either control siRNA or two independent siRNAs against MTHFD2. After 48 hours, relative cell viability was determined using the CCK8 assay. C. Bar graph showing quantification of PDX derived organoids representing the number of organoids per field in FIG. 1H.
Briefly, cells were reverse transfected using Lipofectamine RNAiMAX transfection reagent (ThermoFisher) and plated into 96-well or 6-well plates. Cells in 6-well plates were cultured for the indicated times, trypsinized, stained with trypan blue, and counted using a hemocytometer. […] Cells plated into the 96-well plates were cultured for 48 hrs and cell viability was measured using the CCK-8 kit (Bimake, Munich, Germany).
RNA extraction, reverse transcription and quantitative polymerase chain reaction (qPCR) were performed as described previously (Sheng X, Arnoldussen Y J, Storm M. Tesikova M, Nenseth H Z, Zhao S, et al. Divergent androgen regulation of unfolded protein response pathways drives prostate cancer. EMBO Mol Med 2015; 7:788-801). […]

siMTHFD2-2: MTHFD2-specific siRNA CAGGCCAGCTCAAGAAGCAAA; location 1140; positive control in Example 3 (chain 2 CAGGCCAGCUCAAGAAGCAAA; chemistry not given here; one strand in two spellings)
MTHFD2 knockdown, maximal (72 hours post-transfection): ~80%
return of MTHFD2 to basal levels (time course after transfection): ≤ 12 days
time MTHFD2 remained significantly downregulated (time course after transfection): more than one week
